This passage reports TGI and GI50 results from PubChem BioAssay (NCI).

Some test systems named below: A549 NSCLC; LOX IMVI melanoma; OVCAR-8 ovarian; SF-295 CNS; SF-539 CNS; SK-MEL-28 melanoma; SR leukemia; BT-549 breast; HS 578T breast; NCI/ADR-RES ovarian.
Common to all, as to assay: DTP human tumour cell line panel, 48 h

SMILES strings stand for the structures.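 48-hour exposure; five concentrations; linearly interpolated endpoints. Here, GI50 denotes the concentration required for 50% inhibition of growth. Definition used: TGI = concentration required for complete inhibition of growth.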 Where only a bound is given, the exact number is not on record here.

For the compound `C=C[C@@H](C)[C@]1(C(=O)OC)CCCC12OCCO2`, the TGI with A549 NSCLC, with LOX IMVI melanoma, in the assay with OVCAR-8 ovarian, with SF-295 CNS, in the assay on SF-539 CNS and with SK-MEL-28 melanoma was > 100 µM throughout. Moreover, in the assay on SR leukemia, the TGI (in general, the concentration at which net growth stops) is > 100 µM.
For the compound `COc1ccc(C(=O)C(CN(C)C)CN(C)C)cc1`, the GI50 (as a rule, the concentration giving 50% growth inhibition) is 19.1 µM in the assay with A549 NSCLC; 15.3 µM in the assay on BT-549 breast; 17.3 µM in the assay with HS 578T breast; 2.08 µM with LOX IMVI melanoma; 2.6 µM in the assay on NCI/ADR-RES ovarian; 3.14 µM in the assay with OVCAR-8 ovarian. The GI50 in the assay with SF-295 CNS is 21.2 µM; in the assay with SF-539 CNS, 7.6 µM; with SK-MEL-28 melanoma, 12.6 µM. In addition, the TGI in the assay with A549 NSCLC was found to be 43.4 µM; in the assay with BT-549 breast, 28.8 µM; in the assay with HS 578T breast, 56.3 µM; in the assay with LOX IMVI melanoma, 5.04 µM; in the assay on NCI/ADR-RES ovarian, 6.42 µM; in the assay on OVCAR-8 ovarian it was 22.4 µM. Moreover, the TGI with SF-295 CNS was 52.2 µM; with SF-539 CNS it was 20.7 µM; in the assay with SK-MEL-28 melanoma it was 27.3 µM.
Turning to `CN(CCS(=O)(=O)N1C(=O)C2CCCN2C(=O)[C@@H]1Cc1ccccc1)C(=O)OCc1ccccc1` (stereo partly drawn), the TGI in the assay on A549 NSCLC, in the assay on LOX IMVI melanoma, with OVCAR-8 ovarian, in the assay on SF-295 CNS, with SF-539 CNS and in the assay on SK-MEL-28 melanoma was > 100 µM throughout. Also, the TGI with SR leukemia is > 100 µM.
With `COc1ccc2ncn(-c3cc(O[C@H](C)c4ccccc4C(F)(F)F)c(C(N)=O)s3)c2c1`, the GI50 is 0.119 µM in the assay with A549 NSCLC; 0.474 µM in the assay with BT-549 breast; 0.31 µM in the assay with HS 578T breast; 0.105 µM in the assay on LOX IMVI melanoma; 0.0586 µM in the assay on NCI/ADR-RES ovarian; 0.117 µM in the assay with OVCAR-8 ovarian. In addition, the GI50 in the assay on SF-295 CNS was 0.162 µM; with SF-539 CNS, 0.131 µM; in the assay on SK-MEL-28 melanoma it was 2.64 µM. Further, the TGI in the assay with A549 NSCLC was found to be 4.22 µM; with BT-549 breast, 7 µM; in the assay on HS 578T breast it was 7.18 µM; in the assay with LOX IMVI melanoma it was 3.56 µM; in the assay with NCI/ADR-RES ovarian it was 0.185 µM; in the assay on OVCAR-8 ovarian, 8.81 µM. For the same compound, the TGI with SF-295 CNS was found to be 6.16 µM; in the assay on SF-539 CNS, 4.07 µM; in the assay on SK-MEL-28 melanoma it was 8.54 µM.
As to `O=C(/C=C\c1ccccc1O)c1ccc(O)cc1O`, the TGI in the assay on A549 NSCLC, with LOX IMVI melanoma, in the assay on OVCAR-8 ovarian, with SF-295 CNS, in the assay on SF-539 CNS and in the assay with SK-MEL-28 melanoma was > 100 µM throughout. The TGI in the assay on SR leukemia was > 100 µM.
Consider `Cc1ccc(C)c(N2C(=O)C(=O)C(c3nc4ccccc4s3)/C(=N/N)C2=O)c1` (stereo not drawn), for which the TGI is > 100 µM in the assay with A549 NSCLC; > 100 µM in the assay with LOX IMVI melanoma; > 100 µM in the assay on OVCAR-8 ovarian; > 33.5 µM in the assay on SF-295 CNS; > 100 µM in the assay with SF-539 CNS; > 100 µM in the assay on SK-MEL-28 melanoma. Moreover, the TGI in the assay with SR leukemia was > 100 µM.
Take `NCCSSCc1ccccc1CSSCCN`: the TGI in the assay on A549 NSCLC is > 100 µM; in the assay on LOX IMVI melanoma, 41.8 µM; in the assay with OVCAR-8 ovarian, > 100 µM; in the assay on SF-295 CNS, > 100 µM; in the assay on SF-539 CNS it was > 100 µM; with SK-MEL-28 melanoma it was > 100 µM. In addition, the TGI with SR leukemia is > 100 µM.
Turning to `Cc1cnc2ccc(C)c([N+](=O)[O-])c2c1NCCCN(C)C`, the TGI with A549 NSCLC, in the assay on LOX IMVI melanoma, with OVCAR-8 ovarian, in the assay on SF-295 CNS, in the assay on SF-539 CNS and with SK-MEL-28 melanoma was > 100 µM each time. The total growth inhibition concentration (TGI) in the assay on SR leukemia was > 100 µM.
Regarding `C/C(=N\N=C(N)N)C(CN1CCCCC1)C(c1ccccc1)c1c(O)c2ccccc2oc1=O` (stereo not drawn), the TGI in the assay on A549 NSCLC, with LOX IMVI melanoma, in the assay on OVCAR-8 ovarian, in the assay on SF-295 CNS, in the assay with SF-539 CNS and in the assay with SK-MEL-28 melanoma was > 100 µM throughout. For the same compound, in the assay on SR leukemia, the TGI is > 100 µM.
`Cc1c(C)c2ccc3oc4ccccc4c3c2oc1=O`: the TGI in the assay with A549 NSCLC, in the assay on LOX IMVI melanoma, in the assay on OVCAR-8 ovarian, in the assay on SF-295 CNS, in the assay with SF-539 CNS and with SK-MEL-28 melanoma was > 100 µM throughout. The TGI with SR leukemia was > 100 µM.
`Clc1c(Cl)[n+](Cc2ccc3ccccc3c2)cn1Cc1ccc2ccccc2c1`: the GI50 was 3.32 µM in the assay on A549 NSCLC; 1.67 µM in the assay with BT-549 breast; 1.71 µM with HS 578T breast; 1.26 µM in the assay with LOX IMVI melanoma; 16.3 µM in the assay on NCI/ADR-RES ovarian; 1.65 µM with OVCAR-8 ovarian. The GI50 with SF-295 CNS was 1.4 µM; in the assay with SF-539 CNS it was 1.57 µM; with SK-MEL-28 melanoma it was 1.63 µM. In addition, the concentration for total growth inhibition (TGI) with A549 NSCLC worked out at 11.7 µM; in the assay on BT-549 breast, 3.09 µM; in the assay on HS 578T breast, 4.41 µM; in the assay with LOX IMVI melanoma, 2.52 µM; with NCI/ADR-RES ovarian it was 38 µM; with OVCAR-8 ovarian, 3.3 µM. Further, the TGI in the assay with SF-295 CNS came to 2.82 µM; in the assay with SF-539 CNS, 2.98 µM; in the assay on SK-MEL-28 melanoma, 3.04 µM.
`CCOC(=O)Cc1c(C)c2cc(C(=O)c3ccccc3)c(O)cc2oc1=O`: the TGI in the assay on A549 NSCLC was 91.3 µM; with BT-549 breast it was 59.8 µM; with HS 578T breast, 97.1 µM; in the assay with LOX IMVI melanoma it was > 100 µM; with NCI/ADR-RES ovarian, 73.3 µM; in the assay on OVCAR-8 ovarian, > 100 µM. The TGI with SF-295 CNS was > 100 µM; in the assay on SF-539 CNS, 58.3 µM; in the assay on SK-MEL-28 melanoma it was > 100 µM.
As to `C/C=C(\C)c1cc(=O)c2c(C)cc3c(c2o1)C(=O)c1c(O)c(C2CC(C)(N(C)C)C(OC(C)=O)C(C)O2)cc(C2CC(N(C)C)C(O)C(C)O2)c1C3=O` (stereo not drawn), the TGI with A549 NSCLC was > 50 µM; in the assay with BT-549 breast it was 3.42 µM; with HS 578T breast, 18.6 µM; in the assay with LOX IMVI melanoma it was 6.91 µM; in the assay on NCI/ADR-RES ovarian it was 9.16 µM; in the assay on OVCAR-8 ovarian it was > 17.5 µM. Moreover, the TGI in the assay on SF-295 CNS was > 16.9 µM; with SF-539 CNS it was 2.59 µM; in the assay with SK-MEL-28 melanoma, 8.41 µM.
For `O=C(CCC(=O)Nc1ccc(Cl)c(Cl)c1)Cc1nc2ccccc2o1`, the TGI with A549 NSCLC, in the assay on LOX IMVI melanoma, in the assay on OVCAR-8 ovarian, in the assay on SF-295 CNS, in the assay with SF-539 CNS and in the assay with SK-MEL-28 melanoma was > 100 µM each time. Besides, the TGI in the assay with SR leukemia was > 100 µM.
Turning to `CCC[C@H]1O[C@@H]2CC(=O)O[C@@H]2C2=C1C(=O)C=CC2=O`, the TGI in the assay on A549 NSCLC was > 58.1 µM; with LOX IMVI melanoma it was 39.8 µM; in the assay on OVCAR-8 ovarian, > 74.9 µM; in the assay with SF-295 CNS, 55.8 µM; with SF-539 CNS, 33.6 µM; in the assay with SK-MEL-28 melanoma, 31.5 µM. Besides, the TGI with SR leukemia was 49.8 µM.
`O=C(C(=O)c1cc2ccccc2[nH]1)c1cc2ccccc2[nH]1`: the TGI with A549 NSCLC, in the assay on LOX IMVI melanoma, in the assay with OVCAR-8 ovarian, with SF-295 CNS, in the assay with SF-539 CNS and in the assay with SK-MEL-28 melanoma was > 347 µM in each case. The TGI in the assay on SR leukemia is > 110 µM.
Consider `O=C(CN(/C=C/C(=O)C(F)(F)F)c1ccc(Cl)cc1)c1ccc(Cl)cc1`, for which the GI50 in the assay on A549 NSCLC was 13.2 µM; with BT-549 breast, 17.6 µM; in the assay with HS 578T breast it was 13.8 µM; with LOX IMVI melanoma, 4.61 µM; in the assay on NCI/ADR-RES ovarian, 9.07 µM; in the assay on OVCAR-8 ovarian, 10.8 µM. For the same compound, the results for the GI50 with SF-295 CNS, with SF-539 CNS and with SK-MEL-28 melanoma were 4.66 µM, 19.2 µM and 16.6 µM, respectively. In addition, the TGI with A549 NSCLC came out at 32.1 µM; with BT-549 breast, 43.9 µM; with HS 578T breast, 42.5 µM; in the assay on LOX IMVI melanoma, 20.9 µM; in the assay on NCI/ADR-RES ovarian it was 37 µM; in the assay with OVCAR-8 ovarian, 26.9 µM. The TGI with SF-295 CNS turned out to be 17.7 µM; with SF-539 CNS, 36.9 µM; with SK-MEL-28 melanoma, 39.5 µM.
On to `Nc1nc(/C=C\c2ccc([N+](=O)[O-])s2)nc(N2CCN(c3ccccc3)CC2)n1`, for which the GI50 is 33.6 µM in the assay with A549 NSCLC; 21.8 µM in the assay on BT-549 breast; 0.54 µM in the assay with HS 578T breast; 15.7 µM in the assay with LOX IMVI melanoma; 21.3 µM in the assay with NCI/ADR-RES ovarian; 22.2 µM in the assay with OVCAR-8 ovarian. The results for the GI50 in the assay on SF-295 CNS, with SF-539 CNS and with SK-MEL-28 melanoma were 20 µM, 40.9 µM and 24.9 µM, respectively. For the same compound, the TGI in the assay on A549 NSCLC is > 100 µM; in the assay on BT-549 breast, 48 µM; with HS 578T breast it was 14.6 µM; in the assay with LOX IMVI melanoma it was 29.1 µM; in the assay on NCI/ADR-RES ovarian, 53 µM; with OVCAR-8 ovarian it was 52.7 µM. The figures for the TGI in the assay on SF-295 CNS, with SF-539 CNS and with SK-MEL-28 melanoma were 58.3 µM, > 100 µM and 47.1 µM, respectively.
On to `O=C(NCCCCN1CCOCC1)c1cc2ccccc2o1`, for which the GI50 in the assay on A549 NSCLC, with BT-549 breast, in the assay with HS 578T breast, in the assay on LOX IMVI melanoma, with NCI/ADR-RES ovarian and with OVCAR-8 ovarian was > 100 µM in each case. For the same compound, the GI50 in the assay on SF-295 CNS, in the assay on SF-539 CNS and with SK-MEL-28 melanoma was > 100 µM throughout. Also, the TGI in the assay on A549 NSCLC, in the assay on BT-549 breast, with HS 578T breast, in the assay with LOX IMVI melanoma, in the assay on NCI/ADR-RES ovarian and in the assay on OVCAR-8 ovarian was > 100 µM in each case. Besides, the total growth inhibition concentration (TGI) with SF-295 CNS, with SF-539 CNS and in the assay with SK-MEL-28 melanoma was > 100 µM throughout.
